{"source": "patent US20030138476A1", "about": "“Use of glutamate and/or a glutamate precursor for the preparation of a nutritional or pharmaceutical preparation for the treatment or prevention of hyperpermeability or undesired permeability of the intestinal wall” (priority 2000, published 2003)", "key": {"[1]": {"system": "HT-29CL.19A cells", "assay": "Transepithelial (apical to basolateral) HRP permeability of HT-29CL.19A monolayers, hyperpermeability induced by PDB", "type": "cell-based, human", "conditions": "PDB 1 mmol/l", "description": "The macromolecular permeability of the intestinal epithelium is controlled by the passage through intercellular tight junctions in the paracellular channels. Opening of these tight junctions is controlled by the epithelial cells in response to various intercellular mediators, such as Ca, cyclic AMP, G proteins and protein kinase c. The human intestinal cell line HT-29CL.19A is becoming increasingly more important for studying this paracellular permeability in vitro. See also the abovementioned article in J. Parenteral Enteral Nutrition, that is incorporated herein by reference.\nFor the present examples, confluent monolayers of HT-29CL19A cells were cultured on permeability filters. […] The transepithelial permeability from apical to basolateral was determined for horseradish peroxidase (HRP) with the aid of an enzyme assay. Phorbol 12,13-dibutyrate (PDB, 1 mmol/l) was used to increase the permeability. […] All agents were added to the apical compartment."}, "[2]": {"system": "HT-29CL.19A cells", "conditions": "Kouznetsova et al. J. Parenteral Enteral Nutrition 23 (1999) 136-139; cited from earlier work"}, "[3]": {"conditions": "cited from earlier work"}}}
{"smiles": "N[C@@H](CCC(=O)O)C(=O)O", "note": "[Glutamate, glutamate]", "values": [{"measurement": "effect on PDB-induced hyperpermeability (HRP flux)", "setting": "[1]; glutamate 0.6 mmol/l, apical, p<0.001", "value": "had the same effect"}, {"measurement": "effect on PDB-induced hyperpermeability (HRP flux)", "setting": "[1]; glutamate 0.6 mmol/l, apical, p<0.001, listed as glutamate", "value": "reduces the macromolecular hyperpermeability"}]}
{"smiles": "NC(=O)CC[C@H](N)C(=O)O", "note": "[Glutamine, glutamine]", "values": [{"measurement": "effect on PDB-induced hyperpermeability (HRP flux)", "setting": "[1]; glutamine added to apical compartment", "value": "reduces this hyperpermeability appreciably"}, {"measurement": "effect on macromolecular hyperpermeability of intestinal cells induced by phorbol 12,13-dibutyrate", "setting": "[2]", "value": "able to lower the macromolecular hyperpermeability"}, {"measurement": "solubility", "setting": "[3]", "value": "poor solubility"}]}
{"smiles": "CCCC(=O)O[C@@H]1[C@@H](C)[C@@]2(O)[C@@H](C=C(CO)C[C@]3(O)C(=O)C(C)=C[C@@H]23)[C@@H]2C(C)(C)[C@]12OC(=O)CCC", "note": "[PDB, Phorbol 12,13-dibutyrate]", "values": [{"measurement": "increase of HRP flux compared with the control", "setting": "[1]; apical, after 150-279 min stimulation, p<0.001", "value": 3, "unit": "fold"}]}
{"smiles": "N[C@H](C(=O)O)[C@@H]1CC(Cl)=NO1", "note": "[Acivicin, acivicin]", "values": [{"measurement": "effect of acivicin on the reduction in PDB-induced hyperpermeability in the presence of glutamate", "setting": "[1]; in the presence of glutamate", "value": "This effect did not occur"}, {"measurement": "effect of acivicin on the glutamine-mediated reduction in PDB-induced hyperpermeability", "setting": "[1]; in the presence of glutamine", "value": "prevented the glutamine-mediated reduction in the hyperpermeability"}]}
